These are literature values, as cited in patent US20250041318A1, “STERILANTS COMPOSITION, KITS AND METHODS OF USE THEREOF” (priority 2021, published 2025).

Like-named read-outs stand apart in the source and are kept apart here.

Series [1] concerns pancreatic cancer. Conditions: preclinical mouse model of pancreatic cancer.
Series [2] deals with LDH from goat heart (LDH-B4).
Series [3] deals with LDH from goat testis (LDH-C4).
In series [4] the target is LDH from goat liver (LDH-A4).
For series [5], the system named is LDH isozymes (LDH-A4, LDH-B4, LDH-C4).
Setting [6] is: Lineweaver-Burk reciprocal plots.

As for `CC(C)[C@]12O[C@H]1[C@@H]1O[C@]13[C@]1(O[C@H]1C[C@H]1C4=C(CC[C@@]13C)C(=O)OC4)[C@@H]2OCOP(=O)(O)O` [Minnelide], the “Efficacy compared with gemcitabine” value in series [1] is “even more effective than gemcitabine”.

Take `Cc1cc2c(C(C)C)c(O)c(O)c(C=O)c2c(O)c1-c1c(C)cc2c(C(C)C)c(O)c(O)c(C=O)c2c1O` [gossypol]: the Ki in series [2] (read-out: Ki against NAD) was 108 µM; in series [2] (read-out: Ki against NADH) it was 43 µM; in series [2] (read-out: Ki against lactate), 85 µM; in series [2] (read-out: Ki against pyruvate), 34 µM; in series [3] (read-out: Ki against NAD), 83 µM; in series [3] (read-out: Ki against NADH), 45 µM. Moreover, the Ki in series [3] (read-out: Ki against lactate) is 125 µM; in series [3] (read-out: Ki against pyruvate), 29 µM; in series [4] (read-out: Ki against NAD), 94 µM; in series [4] (read-out: Ki against NADH), 33 µM; in series [4] (read-out: Ki against lactate) it was 85 µM; in series [4] (read-out: Ki against pyruvate), 20 µM. Also, the IC50 in series [5] (3.3 mM lactic acid and 1.8 mM NAD at 25 degrees C. and pH 9.0, read-out: IC50 for the lactate oxidation) was 125 µM. The “Manner of inhibition when NAD and NADH were varied as substrates” value in series [5] (setting [6]) is on record as “competitive”. Further, the “Manner of inhibition with respect to pyruvate and lactate” value in series [5] (setting [6]) is “non-competitive”.
